From patent US11117868B2, “Edaravone salt” (Treeway TW001 B.V., priority 2017, dated 2021)
In brackets after ≈: the same amount, converted by molar mass. Several values for one entry are separate records, joined by “and”; a condition that tells them apart may be missing. Equal values may be shown once.

Tests used:
[1] = Solubility in water after 7 hours equilibration; format: physicochemical
[2] = Intrinsic dissolution rate in water; format: physicochemical
Procedure: The intrinsic dissolution rate in water of the edaravone salt was 0.37 mg/min/cm^2, whereas the dissolution rate of the freebase was 0.22 mg/min/cm^2.

[3] = cited from earlier work
[4] = Hygroscopicity / conversion of polymorph through absorption of water; format: physicochemical
[5] = Storage stability at controlled temperature and relative humidity

Which results are given for `CC1=NN(c2ccccc2)C(=O)C1` [Edaravone, 3-Methyl-1-phenyl-2-pyrazolin-5-one]?
solubility at 7 h ([1]; thermodynamic from solid): 2000 to 3000 µg/mL (≈ 11.5 to 17.2 mM); intrinsic dissolution rate in water [2]: 0.22 mg/min/cm^2; dissolution in water (in words) [3]: dissolves very slowly

For “anhydrous 3-methyl-1-phenyl-2-pyrazolin-5-one napadisylate [Example 6]”, which “relative humidity at which it is converted into polymorph D through absorption of water” value ([4]; conversion into polymorph D) is on record?
The value was > 75 % RH.

What about the degradation on storage ([5]; kept for 2 days at 40° C. and 75% RH) of the same compound?
Its degradation on storage is “without showing significant degradation”.

Which solubility in water ([1]; monohydrate) does the source give for “3-methyl-1-phenyl-2-pyrazolin-5-one hemi-napadisylate monohydrate [Example 1]” here?
The solubility in water was 2800 µg/mL and 3200 µg/mL.

What about the “intrinsic dissolution rate in water” value [2] of the same compound?
The value was 0.37 mg/min/cm^2.

And the hygroscopicity [4]?
Its hygroscopicity is “non-hygroscopic”.

What about the “stability (in words)” value [5] of the same compound?
Its value is “very stable”.

And the degradation on storage ([5]; kept for 28 days at 40° C. and 75% RH)?
The degradation on storage was “without showing significant degradation”.

Which “relative humidity at which it is converted into polymorph B through absorption of water” value ([4]; conversion into polymorph B) does the source give for `CC1=NN(c2ccccc2)C(=O)C1.CC1=NN(c2ccccc2)C(=O)C1.O.O=S(=O)(O)c1cccc2c(S(=O)(=O)O)cccc12` [Example 3, 3-methyl-1-phenyl-2-pyrazolin-5-one hemi-napadisylate hemihydrate] here?
Its value is > 50 % RH.

For `CC1=NN(c2ccccc2)C(=O)C1.CC1=NN(c2ccccc2)C(=O)C1.O.O.O=S(=O)(O)c1cccc2c(S(=O)(=O)O)cccc12` [Example 4, 3-methyl-1-phenyl-2-pyrazolin-5-one hemi-napadisylate monohydrate], which hygroscopicity [4] is on record?
The hygroscopicity was “non-hygroscopic”.
